Reference: EP0044212B1, “Herbicidal o-alkylsulfonyloxy- and o-alkylsulfonylamino-benzenesulfonamides” (E.I. DU PONT DE NEMOURS AND COMPANY, priority 1980, dated 1982)

Key:
[1] = test system: Crabgrass; assay: Test F over-the-top soil/foliage treatment; assay type: in vivo, Digitaria spp.; set-up: scale not given here; conditions: soil/foliage spray, ~14 days
Protocol: (§1) The test chemicals, dissolved in a non-phytotoxic solvent, were applied in an overall spray to the foliage and surrounding […] of selected plant species. […] Approximately fourteen days after treatment, all species were visually compared to untreated controls and rated for response to treatment.
(§2) All plant species were seeded in Woodstown sandy loam soil and grown in a greenhouse. The following species were grown in soil contained in plastic pots (25 cm diameter by 13 cm deep): soybeans, cotton, alfalfa, corn, rice, wheet, sorghum, velvetleaf (Abutilon theophrasti), sesbania (Sesbania exaltata), Cassia (Cassia tora), morningglory (Ipomoea hederacea), jimsonweed (Datura stramonium), cocklebur (Xanthium pensylvanicum), crabgrass (Digitaria spp.), nutsedge (Cyperus rotundus), barnyardgrass (Echinochloa crusgalli), giant foxtail (Setaria faberii) and wild oats (Avena fatua). The following species were grown in soil in a paper cup (12 cm diameter by 13 cm deep): sunflower, sugarbeets, and mustard. All plants were sprayed approximately 14 days after planting.

[2] = test system: Alfalfa; assay: Test F over-the-top soil/foliage treatment; assay type: in vivo; set-up: scale not given here; conditions: soil/foliage spray, ~14 days
Protocol: as §1, §2

[3] = test system: Sorghum; assay: Test F over-the-top soil/foliage treatment; assay type: in vivo; set-up: scale not given here; conditions: soil/foliage spray, ~14 days
Protocol: as §1, §2

[4] = test system: Nutsedge; assay: Test F over-the-top soil/foliage treatment; assay type: in vivo, Cyperus rotundus; set-up: scale not given here; conditions: soil/foliage spray, ~14 days
Protocol: as §1, §2

[5] = test system: Pigweed; assay: Test B pre-emergence on Fallsington silt loam; assay type: in vivo, Amaranthus retroflexus; conditions: 0.03 kg/ha, 28 days
From the text: (§3) Two plastic bulb pans were filled with fertilized and limed Fallsington silt loam soil. One pan was planted with corn, sorghum, Kentucky bluegrass and several grassy weeds. The other pan was planted with cotton, soybeans, purple nutsedge (Cyperus rotundus), and several broadleaf weeds. The following grassy and broadleaf weeds were planted: crabgrass (Digitaria sanguinalis), barnyardgrass (Echinochloa crusgalli), wild oats (Avena fatua), johnsongrass (Sorghum halepense), dallisgrass (Paspalum dilatatum), giant foxtail (Setaria faberii), cheatgrass (Bromus secalinus), mustard (Brassica arvensis), cocklebur (Xanthium pensylvanicum), pigweed (Amaranthus retroflexus), morningglory (Ipomoea hederacea), cassia (Cassia tora), teaweed (Sida spinosa), velvetleaf (Abutilon theophrasti), and jimsonweed (Datura stramonium). A 12.5 cm diameter plastic pot was also filed with prepared soil and planted with rice and wheat. Another 12.5 cm pot was planted with sugarbeets. The above four containers were treated pre- emergence with several test compounds within the scope of the invention.
(§4) Twenty-eight days after treatment, the plants were evaluated and visually rated for response to the chemical treatments utilizing the rating system described previously for Test A. The data are summarized in Table B.

[6] = test system: Ky. bluegrass; assay: Test B pre-emergence on Fallsington silt loam; assay type: in vivo, Kentucky bluegrass; set-up: scale not given here; conditions: 0.12 kg/ha, 28 days
From the text: as §3, §4

[7] = test system: Wheat; assay: Test B pre-emergence on Fallsington silt loam; assay type: in vivo; set-up: scale not given here; conditions: 28 days
From the text: as §3, §4

[8] = test system: Sugarbeets; assay: Test B pre-emergence on Fallsington silt loam; assay type: in vivo; set-up: scale not given here; conditions: 28 days
From the text: as §3, §4

[9] = test system: Cocklebur; assay: Test B pre-emergence on Fallsington silt loam; assay type: in vivo, Xanthium pensylvanicum; conditions: 0.03 kg/ha, 28 days
From the text: as §3, §4

[10] = test system: Jimsonweed; assay: Test F over-the-top soil/foliage treatment; assay type: in vivo, Datura stramonium; conditions: soil/foliage spray, ~14 days
Protocol: as §1, §2

[11] = test system: Giant Foxtail; assay: Test F over-the-top soil/foliage treatment; assay type: in vivo, Setaria faberii; set-up: scale not given here; conditions: soil/foliage spray, ~14 days
Protocol: as §1, §2

[12] = test system: Sesbania; assay: Test F over-the-top soil/foliage treatment; assay type: in vivo, Sesbania exaltata; set-up: scale not given here; conditions: soil/foliage spray, ~14 days
Protocol: as §1, §2

[13] = test system: Wild Oats; assay: Test B pre-emergence on Fallsington silt loam; assay type: in vivo, Avena fatua; set-up: scale not given here; conditions: 28 days
From the text: as §3, §4

[14] = test system: Wheat; assay: Test F over-the-top soil/foliage treatment; assay type: in vivo, wheet; set-up: scale not given here; conditions: soil/foliage spray, ~14 days
Protocol: as §1, §2

[15] = test system: Sunflower; assay: Test F over-the-top soil/foliage treatment; assay type: in vivo; conditions: soil/foliage spray, ~14 days
Protocol: as §1, §2

[16] = test system: Corn; assay: Test F over-the-top soil/foliage treatment; assay type: in vivo; conditions: soil/foliage spray; 0.06 kg/ha; ~14 days
Protocol: as §1, §2

[17] = test system: Mustard; assay: Test F over-the-top soil/foliage treatment; assay type: in vivo; conditions: soil/foliage spray, ~14 days
Protocol: as §1, §2

[18] = test system: Sugarbeets; assay: Test F over-the-top soil/foliage treatment; assay type: in vivo; conditions: soil/foliage spray; 0.007 kg/ha; ~14 days
Protocol: as §1, §2

[19] = test system: Johnsongrass; assay: Test B pre-emergence on Fallsington silt loam; assay type: in vivo, Sorghum halepense; set-up: scale not given here; conditions: 0.12 kg/ha, 28 days
From the text: as §3, §4

[20] = test system: Dallisgrass; assay: Test B pre-emergence on Fallsington silt loam; assay type: in vivo, Paspalum dilatatum; set-up: scale not given here; conditions: 0.03 kg/ha, 28 days
From the text: as §3, §4

[21] = test system: Cassia; assay: Test B pre-emergence on Fallsington silt loam; assay type: in vivo, Cassia tora; conditions: 0.12 kg/ha, 28 days
From the text: as §3, §4

[22] = test system: Wild Oats; assay: Test F over-the-top soil/foliage treatment; assay type: in vivo, Avena fatua; set-up: scale not given here; conditions: soil/foliage spray, ~14 days
Protocol: as §1, §2

[23] = test system: Morningglory; assay: Test B pre-emergence on Fallsington silt loam; assay type: in vivo, Ipomoea hederacea; conditions: 0.03 kg/ha, 28 days
From the text: as §3, §4

COc1cc(OC)nc(NC(=O)NS(=O)(=O)c2ccccc2OS(C)(=O)=O)n1 [Compound 1, N-[(4,6-Dimethoxypyrimidin-2-yl)aminocarbonyl]-2-hydroxybenzenesulfonamide, methanesulfonate]
1G: Wheat response rating ([14]; 0.003 kg/ha)
10C: Sorghum response rating ([3]; 0.06 kg/ha) | Nutsedge response rating ([4]; 0.015 kg/ha) | Nutsedge response rating ([4]; 0.06 kg/ha) | Pigweed response rating [5] | Ky. bluegrass response rating [6] | Sugarbeets response rating ([8]; 0.03 kg/ha) | Sugarbeets response rating ([8]; 0.12 kg/ha) | Sesbania response rating ([12]; 0.003 kg/ha) | Sesbania response rating ([12]; 0.007 kg/ha) | Wild Oats response rating ([13]; 0.12 kg/ha) | Sunflower response rating ([15]; 0.003 kg/ha) | Sunflower response rating ([15]; 0.007 kg/ha) | Corn response rating [16] | Mustard response rating ([17]; 0.003 kg/ha) | Mustard response rating ([17]; 0.007 kg/ha) | Sugarbeets response rating [18] | Johnsongrass response rating [19] | Cassia response rating [21]
6G: Cocklebur response rating [9] | Wild Oats response rating ([13]; 0.03 kg/ha) | Wild Oats response rating ([22]; 0.06 kg/ha)
2C: Crabgrass response rating ([1]; 0.015 kg/ha)
5C: Alfalfa response rating ([2]; 0.015 kg/ha)
7G: Dallisgrass response rating [20]
0: Crabgrass response rating ([1]; 0.003 kg/ha) | Wheat response rating ([7]; 0.03 kg/ha) | Jimsonweed response rating ([10]; 0.003 kg/ha) | Jimsonweed response rating ([10]; 0.007 kg/ha) | Wheat response rating ([14]; 0.007 kg/ha) | Wheat response rating ([14]; 0.015 kg/ha) | Wheat response rating ([14]; 0.06 kg/ha)
5G: Crabgrass response rating ([1]; 0.007 kg/ha) | Nutsedge response rating ([4]; 0.007 kg/ha) | Giant Foxtail response rating ([11]; 0.003 kg/ha) | Giant Foxtail response rating ([11]; 0.007 kg/ha) | Morningglory response rating [23]
9C: Alfalfa response rating ([2]; 0.06 kg/ha) | Sorghum response rating ([3]; 0.015 kg/ha) | Jimsonweed response rating ([10]; 0.06 kg/ha) | Sesbania response rating ([12]; 0.015 kg/ha) | Sesbania response rating ([12]; 0.06 kg/ha)
3G: Nutsedge response rating ([4]; 0.003 kg/ha) | Wheat response rating ([7]; 0.12 kg/ha) | Wild Oats response rating ([22]; 0.003 kg/ha) | Wild Oats response rating ([22]; 0.007 kg/ha) | Wild Oats response rating ([22]; 0.015 kg/ha)
